Measurements from patent US9096591B2, “Tetracyclic compounds” (Medivation Technologies, Inc., priority 2007, dated 2015).

What follows are compounds tested against T1, human recombinant adrenergic α2B receptor (Homo sapiens, UniProt P18089) (assay: Adrenergic α2B radioligand binding ([3H]Rauwolscine)). Settings: percent inhibition of specific binding.
T1 construct: expressed in transfected cells; host or cells: CHO-K1 cells
T1 sequence (P18089 1-450): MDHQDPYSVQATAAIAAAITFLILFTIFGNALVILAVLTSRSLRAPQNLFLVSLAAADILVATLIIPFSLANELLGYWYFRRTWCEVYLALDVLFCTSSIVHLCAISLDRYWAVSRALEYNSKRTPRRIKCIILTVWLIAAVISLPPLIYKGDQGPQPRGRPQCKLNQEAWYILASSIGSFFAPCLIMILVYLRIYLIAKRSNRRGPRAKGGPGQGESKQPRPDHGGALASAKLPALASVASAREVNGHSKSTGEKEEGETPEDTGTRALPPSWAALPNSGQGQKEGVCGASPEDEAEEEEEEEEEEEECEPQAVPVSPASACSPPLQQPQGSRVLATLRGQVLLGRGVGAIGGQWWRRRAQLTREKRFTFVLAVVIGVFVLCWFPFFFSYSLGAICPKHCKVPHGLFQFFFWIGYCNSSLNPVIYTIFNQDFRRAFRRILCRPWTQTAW
Design: Inhibition of ligand binding, Adren. alpha2B: concentration or dose not given beside the values
Protocol: To evaluate in radioligand binding assays the activity of compounds of the invention, human recombinant adrenergic α2B receptor expressed in Chinese hamster ovary (CHO-K1) cells (Uhlen S et al. Eur J. Pharmacol. 343(1):93, 1998) in a modified Tris-HCl buffer (50 mM Tris-HCl, pH 7.4, 12.5 mM MgCl2, 1 mM EDTA, 0.2% BSA) was used. Compounds of the invention were incubated with 2.5 nM [^3H]Rauwolscine for 60 minutes at 25° C. Non-specific binding was estimated in the presence of 10 μM Prozosin. Receptor proteins were filtered and washed, the filters were then counted to determine [^3H]Rauwolscine specifically bound. […] Biochemical assay results are presented as the percent inhibition of specific binding in Table 6.

SMILES | Inhibition of ligand binding, Adren. alpha2B [%]
Cc1ccc2c(c1)c1c(n2CCc2ccccn2)CCN(C)C1 [Compound 21, 2,3,4,5-tetrahydro-2,8-dimethyl-5-(2-(pyridin-2-yl)ethyl)-1H-pyrido[4,3-b]indole] | 114
CCN1CCc2c(c3cc(C)ccc3n2CCc2ccccn2)C1 [Compound 23, 2-ethyl-2,3,4,5-tetrahydro-8-methyl-5-(2-(pyridin-2-yl)ethyl)-1H-pyrido[4,3-b]indole] | 97
CCOC(=O)N1CCc2c(c3cc(C)ccc3n2CCc2ccccc2)C1 [Compound 24, ethyl 3,4-dihydro-8-methyl-5-phenethyl-1H-pyrido[4,3-b]indole-2(5H)-carboxylate] | −1
Cc1ccc(CCn2c3c(c4cc(C)ccc42)CN(C)CC3)cc1 [Compound 25, 2,3,4,5-tetrahydro-2,8-dimethyl-5-(4-methylphenethyl)-1H-pyrido[4,3-b]indole] | 108
CCN1CCc2c(c3cc(C)ccc3n2CCc2ccncc2)C1 [Compound 27, 2-ethyl-2,3,4,5-tetrahydro-8-methyl-5-(2-(pyridin-4-yl)ethyl)-1H-pyrido[4,3-b]indole] | 100

Each compound was assayed against T2, human recombinant serotonin (5-Hydroxytryptamine) 5-HT6 receptor (Homo sapiens, UniProt P50406) (assay: Serotonin 5-HT6 radioligand binding ([3H]LSD)). Settings: percent inhibition of specific binding.
T2 construct: expressed in transfected cells; host or cells: human HeLa cells
T2 sequence (P50406 whole entry): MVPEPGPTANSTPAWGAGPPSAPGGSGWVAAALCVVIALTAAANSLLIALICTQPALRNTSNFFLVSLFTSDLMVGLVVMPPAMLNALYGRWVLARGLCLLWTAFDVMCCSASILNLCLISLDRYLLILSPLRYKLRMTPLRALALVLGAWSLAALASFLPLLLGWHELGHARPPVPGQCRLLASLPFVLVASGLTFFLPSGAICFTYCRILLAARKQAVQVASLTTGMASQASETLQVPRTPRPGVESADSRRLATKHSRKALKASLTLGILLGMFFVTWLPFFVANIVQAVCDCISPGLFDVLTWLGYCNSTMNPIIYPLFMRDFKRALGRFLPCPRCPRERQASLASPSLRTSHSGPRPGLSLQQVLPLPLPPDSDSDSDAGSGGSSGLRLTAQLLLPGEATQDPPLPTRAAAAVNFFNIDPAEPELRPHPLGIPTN
Design: Inhibition of ligand binding, Ser. 5-HT6: concentration or dose not given beside the values
Text: Receptor proteins were filtered and washed, the filters were then counted to determine [3H]LSD specifically bound. […] Biochemical assay results are presented as the percent inhibition of specific binding in Table 6.

SMILES | Inhibition of ligand binding, Ser. 5-HT6 [%]
Cc1ccc2c(c1)c1c(n2CCc2ccccn2)CCN(C)C1 [Compound 21, 2,3,4,5-tetrahydro-2,8-dimethyl-5-(2-(pyridin-2-yl)ethyl)-1H-pyrido[4,3-b]indole] | 79
CCN1CCc2c(c3cc(C)ccc3n2CCc2ccccn2)C1 [Compound 23, 2-ethyl-2,3,4,5-tetrahydro-8-methyl-5-(2-(pyridin-2-yl)ethyl)-1H-pyrido[4,3-b]indole] | 47
CCOC(=O)N1CCc2c(c3cc(C)ccc3n2CCc2ccccc2)C1 [Compound 24, ethyl 3,4-dihydro-8-methyl-5-phenethyl-1H-pyrido[4,3-b]indole-2(5H)-carboxylate] | −4
Cc1ccc(CCn2c3c(c4cc(C)ccc42)CN(C)CC3)cc1 [Compound 25, 2,3,4,5-tetrahydro-2,8-dimethyl-5-(4-methylphenethyl)-1H-pyrido[4,3-b]indole] | 103
CCN1CCc2c(c3cc(C)ccc3n2CCc2ccncc2)C1 [Compound 27, 2-ethyl-2,3,4,5-tetrahydro-8-methyl-5-(2-(pyridin-4-yl)ethyl)-1H-pyrido[4,3-b]indole] | 38

These compounds were tested against T3, human recombinant serotonin (5-Hydroxytryptamine) 5-HT2C receptor (Homo sapiens, UniProt P28335) (assay: Serotonin 5-HT2C radioligand binding ([3H]Mesulergine)). Settings: percent inhibition of specific binding.
T3 construct: expressed in transfected cells; host or cells: CHO-K1 cells
T3 sequence (P28335 33-458): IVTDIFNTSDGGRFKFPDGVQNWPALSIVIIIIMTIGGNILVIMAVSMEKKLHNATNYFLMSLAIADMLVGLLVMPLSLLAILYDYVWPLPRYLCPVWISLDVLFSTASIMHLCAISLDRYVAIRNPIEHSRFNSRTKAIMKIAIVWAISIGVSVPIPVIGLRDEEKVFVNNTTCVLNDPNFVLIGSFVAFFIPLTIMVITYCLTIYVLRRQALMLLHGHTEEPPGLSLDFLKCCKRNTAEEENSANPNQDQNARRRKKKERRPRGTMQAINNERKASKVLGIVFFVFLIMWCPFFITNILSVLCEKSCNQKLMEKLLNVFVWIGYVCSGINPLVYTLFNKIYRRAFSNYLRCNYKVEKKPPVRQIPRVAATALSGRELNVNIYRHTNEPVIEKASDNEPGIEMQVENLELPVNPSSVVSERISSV
Design: Inhibition of ligand binding, Ser. 5-HT2C: concentration or dose not given beside the values
Protocol: Compounds of the invention were incubated with 1 nM [^3H]Mesulergine for 60 minutes at 25° C. Non-specific binding was estimated in the presence of 1 μM Mianserin. Receptor proteins were filtered and washed, the filters were then counted to determine [^3H]Mesulergine specifically bound. […] Biochemical assay results are presented as the percent inhibition of specific binding in Table 6.

SMILES | Inhibition of ligand binding, Ser. 5-HT2C [%]
Cc1ccc2c(c1)c1c(n2CCc2ccccn2)CCN(C)C1 [Compound 21, 2,3,4,5-tetrahydro-2,8-dimethyl-5-(2-(pyridin-2-yl)ethyl)-1H-pyrido[4,3-b]indole] | 87
CCN1CCc2c(c3cc(C)ccc3n2CCc2ccccn2)C1 [Compound 23, 2-ethyl-2,3,4,5-tetrahydro-8-methyl-5-(2-(pyridin-2-yl)ethyl)-1H-pyrido[4,3-b]indole] | 53
CCOC(=O)N1CCc2c(c3cc(C)ccc3n2CCc2ccccc2)C1 [Compound 24, ethyl 3,4-dihydro-8-methyl-5-phenethyl-1H-pyrido[4,3-b]indole-2(5H)-carboxylate] | 1
Cc1ccc(CCn2c3c(c4cc(C)ccc42)CN(C)CC3)cc1 [Compound 25, 2,3,4,5-tetrahydro-2,8-dimethyl-5-(4-methylphenethyl)-1H-pyrido[4,3-b]indole] | 99
CCN1CCc2c(c3cc(C)ccc3n2CCc2ccncc2)C1 [Compound 27, 2-ethyl-2,3,4,5-tetrahydro-8-methyl-5-(2-(pyridin-4-yl)ethyl)-1H-pyrido[4,3-b]indole] | 29

Each compound was assayed against T4, human recombinant histamine H1 receptor (Homo sapiens, UniProt P35367) (assay: Histamine H1 radioligand binding ([3H]Pyrilamine)). Settings: 0.03 μM compound; […] [3H]Pyrilamine; read-out: Histamine Binding H1, percent inhibition of specific binding.
T4 construct: expressed in transfected cells; host or cells: CHO cells
T4 sequence (P35367 whole entry): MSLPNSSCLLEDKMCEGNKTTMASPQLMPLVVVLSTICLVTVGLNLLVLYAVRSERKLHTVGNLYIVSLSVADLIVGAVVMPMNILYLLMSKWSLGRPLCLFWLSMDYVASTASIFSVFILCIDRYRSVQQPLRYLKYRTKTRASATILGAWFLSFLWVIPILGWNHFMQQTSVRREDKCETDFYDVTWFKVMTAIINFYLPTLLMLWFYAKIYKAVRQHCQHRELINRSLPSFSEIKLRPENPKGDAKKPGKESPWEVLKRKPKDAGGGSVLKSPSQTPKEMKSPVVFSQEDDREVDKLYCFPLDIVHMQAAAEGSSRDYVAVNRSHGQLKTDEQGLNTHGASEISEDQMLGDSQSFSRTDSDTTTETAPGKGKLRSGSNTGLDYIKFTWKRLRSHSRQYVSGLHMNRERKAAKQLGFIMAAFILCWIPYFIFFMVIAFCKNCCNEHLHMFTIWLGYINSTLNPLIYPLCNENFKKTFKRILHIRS
How it was run: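 Receptor expressed in CHO cells, assayed in 50 mM Tris-HCl pH 7.4 with 2 mM MgCl2, 100 mM NaCl, 250 mM sucrose. Compounds tested at 1 μM in 1% DMSO; non-specific binding set with 1 μM pyrilamine. Filter-bound radioactivity counted; values are percent inhibition of specific binding.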

SMILES | inhibition at 0.03 µM [%]
Cc1ccc(CCn2c3c(c4cc(C)ccc42)CN(C)CC3)cc1 [Compound 25, 2,3,4,5-tetrahydro-2,8-dimethyl-5-(4-methylphenethyl)-1H-pyrido[4,3-b]indole] | 71
CCN1CCc2c(c3cc(C)ccc3n2CCc2ccncc2)C1 [Compound 27, 2-ethyl-2,3,4,5-tetrahydro-8-methyl-5-(2-(pyridin-4-yl)ethyl)-1H-pyrido[4,3-b]indole] | 58

Same assay, conditions: 0.1 μM compound; […] [3H]Pyrilamine; read-out: Histamine Binding H1, percent inhibition of specific binding

SMILES | inhibition at 0.1 µM [%]
Cc1ccc(CCn2c3c(c4cc(C)ccc42)CN(C)CC3)cc1 [Compound 25, 2,3,4,5-tetrahydro-2,8-dimethyl-5-(4-methylphenethyl)-1H-pyrido[4,3-b]indole] | 89
CCN1CCc2c(c3cc(C)ccc3n2CCc2ccncc2)C1 [Compound 27, 2-ethyl-2,3,4,5-tetrahydro-8-methyl-5-(2-(pyridin-4-yl)ethyl)-1H-pyrido[4,3-b]indole] | 77

Same assay, conditions: 1 μM compound; […] [3H]Pyrilamine; read-out: Histamine Binding H1, percent inhibition of specific binding

SMILES | inhibition at 1 µM [%]
Cc1ccc2c(c1)c1c(n2CCc2ccccn2)CCN(C)C1 [Compound 21, 2,3,4,5-tetrahydro-2,8-dimethyl-5-(2-(pyridin-2-yl)ethyl)-1H-pyrido[4,3-b]indole] | 79
CCN1CCc2c(c3cc(C)ccc3n2CCc2ccccn2)C1 [Compound 23, 2-ethyl-2,3,4,5-tetrahydro-8-methyl-5-(2-(pyridin-2-yl)ethyl)-1H-pyrido[4,3-b]indole] | 69
CCOC(=O)N1CCc2c(c3cc(C)ccc3n2CCc2ccccc2)C1 [Compound 24, ethyl 3,4-dihydro-8-methyl-5-phenethyl-1H-pyrido[4,3-b]indole-2(5H)-carboxylate] | -4
Cc1ccc(CCn2c3c(c4cc(C)ccc42)CN(C)CC3)cc1 [Compound 25, 2,3,4,5-tetrahydro-2,8-dimethyl-5-(4-methylphenethyl)-1H-pyrido[4,3-b]indole] | 97
CCN1CCc2c(c3cc(C)ccc3n2CCc2ccncc2)C1 [Compound 27, 2-ethyl-2,3,4,5-tetrahydro-8-methyl-5-(2-(pyridin-4-yl)ethyl)-1H-pyrido[4,3-b]indole] | 99

Same assay, conditions: percent inhibition of specific binding; screened at 1 μM; read-out: Inhibition of ligand binding, Hist. H1

SMILES | inhibition at 1 µM [%]
Cc1ccc2c(c1)c1c(n2CCc2ccccn2)CCN(C)C1 [Compound 21, 2,3,4,5-tetrahydro-2,8-dimethyl-5-(2-(pyridin-2-yl)ethyl)-1H-pyrido[4,3-b]indole] | 79
CCN1CCc2c(c3cc(C)ccc3n2CCc2ccccn2)C1 [Compound 23, 2-ethyl-2,3,4,5-tetrahydro-8-methyl-5-(2-(pyridin-2-yl)ethyl)-1H-pyrido[4,3-b]indole] | 69
CCOC(=O)N1CCc2c(c3cc(C)ccc3n2CCc2ccccc2)C1 [Compound 24, ethyl 3,4-dihydro-8-methyl-5-phenethyl-1H-pyrido[4,3-b]indole-2(5H)-carboxylate] | -4
Cc1ccc(CCn2c3c(c4cc(C)ccc42)CN(C)CC3)cc1 [Compound 25, 2,3,4,5-tetrahydro-2,8-dimethyl-5-(4-methylphenethyl)-1H-pyrido[4,3-b]indole] | 97
CCN1CCc2c(c3cc(C)ccc3n2CCc2ccncc2)C1 [Compound 27, 2-ethyl-2,3,4,5-tetrahydro-8-methyl-5-(2-(pyridin-4-yl)ethyl)-1H-pyrido[4,3-b]indole] | 99

What follows are compounds tested against T5, human recombinant serotonin (5-Hydroxytryptamine) 5-HT2A receptor (Homo sapiens, UniProt P28223) (assay: Serotonin 5-HT2A radioligand binding ([3H]Ketanserin)). Settings: percent inhibition of specific binding.
T5 construct: expressed in transfected cells; host or cells: CHO-K1 cells
T5 sequence (P28223 whole entry): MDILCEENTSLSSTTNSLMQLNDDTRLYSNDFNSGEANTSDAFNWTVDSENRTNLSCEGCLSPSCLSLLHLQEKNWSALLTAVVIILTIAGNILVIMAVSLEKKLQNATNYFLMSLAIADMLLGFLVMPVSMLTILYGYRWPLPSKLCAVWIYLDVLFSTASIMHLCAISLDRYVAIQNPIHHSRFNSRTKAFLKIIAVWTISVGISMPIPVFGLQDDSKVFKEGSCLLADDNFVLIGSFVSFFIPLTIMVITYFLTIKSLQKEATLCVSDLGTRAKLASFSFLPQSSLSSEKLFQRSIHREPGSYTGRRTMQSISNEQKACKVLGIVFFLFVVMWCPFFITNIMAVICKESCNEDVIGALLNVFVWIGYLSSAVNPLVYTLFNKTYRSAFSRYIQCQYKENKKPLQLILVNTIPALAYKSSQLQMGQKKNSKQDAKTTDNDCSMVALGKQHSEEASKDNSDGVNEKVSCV
Protocol: Compounds of the invention were incubated with 0.5 nM [^3H]Ketanserin for 60 minutes at 25° C. Non-specific binding was estimated in the presence of 1 μM Mianserin. Receptor proteins were filtered and washed, the filters were then counted to determine [^3H]Ketanserin specifically bound. […] Biochemical assay results are presented as the percent inhibition of specific binding in Table 6.

SMILES | Inhibition of ligand binding, Ser. 5-HT2A [%]
Cc1ccc2c(c1)c1c(n2CCc2ccccn2)CCN(C)C1 [Compound 21, 2,3,4,5-tetrahydro-2,8-dimethyl-5-(2-(pyridin-2-yl)ethyl)-1H-pyrido[4,3-b]indole] | 94
CCN1CCc2c(c3cc(C)ccc3n2CCc2ccccn2)C1 [Compound 23, 2-ethyl-2,3,4,5-tetrahydro-8-methyl-5-(2-(pyridin-2-yl)ethyl)-1H-pyrido[4,3-b]indole] | 78
CCOC(=O)N1CCc2c(c3cc(C)ccc3n2CCc2ccccc2)C1 [Compound 24, ethyl 3,4-dihydro-8-methyl-5-phenethyl-1H-pyrido[4,3-b]indole-2(5H)-carboxylate] | −2
Cc1ccc(CCn2c3c(c4cc(C)ccc42)CN(C)CC3)cc1 [Compound 25, 2,3,4,5-tetrahydro-2,8-dimethyl-5-(4-methylphenethyl)-1H-pyrido[4,3-b]indole] | 93
CCN1CCc2c(c3cc(C)ccc3n2CCc2ccncc2)C1 [Compound 27, 2-ethyl-2,3,4,5-tetrahydro-8-methyl-5-(2-(pyridin-4-yl)ethyl)-1H-pyrido[4,3-b]indole] | 63
